Assay results reported in the supplement of paper PMC10307832.

What was measured:
Assay in all cases: relative viability (nuclei count vs DMSO), 5 days (fraction); higher = more cells survive
[1] = compound: NC(=O)[C@@H](CCC(F)(F)F)N(Cc1ccc(-c2ncon2)cc1F)S(=O)(=O)c1ccc(Cl)cc1 [Avagacestat] + C[C@]1(O)C[C@@H](c2nc(-c3ccc4ccc(-c5ccccc5)nc4c3)c3c(N)nccn32)C1 [Linsitinib] (partner 1 µM)
Outline: (§1)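 Each reported value is a median over duplicate plates. It expresses relative viability: treated-well nuclei count divided by vehicle-well nuclei count. Lung cancer cell lines in 1536-well plates were dosed by pin tool a day after seeding, alone with one drug or with a fixed anchor-drug dose plus five library-drug doses (not always all listed) in √10 steps, and nuclei were counted after 5 days.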

[2] = compound: NC(=O)[C@@H](CCC(F)(F)F)N(Cc1ccc(-c2ncon2)cc1F)S(=O)(=O)c1ccc(Cl)cc1 [Avagacestat] + CS(=O)(=O)N1CCN(Cc2cc3nc(-c4cccc5[nH]ncc45)nc(N4CCOCC4)c3s2)CC1 [Pictilisib] (partner 1 µM)
Outline: as §1

[3] = compound: NC(=O)[C@@H](CCC(F)(F)F)N(Cc1ccc(-c2ncon2)cc1F)S(=O)(=O)c1ccc(Cl)cc1 [Avagacestat] + Cc1nc(NC(=O)N2CCC[C@H]2C(N)=O)sc1-c1ccnc(C(C)(C)C(F)(F)F)c1 [Alpelisib] (partner 2 µM)
Outline: as §1

[4] = compound: NC(=O)[C@@H](CCC(F)(F)F)N(Cc1ccc(-c2ncon2)cc1F)S(=O)(=O)c1ccc(Cl)cc1 [Avagacestat] + Nc1ncn([C@H]2C[C@H](O)[C@@H](CO)O2)c(=O)n1 [Decitabine] (partner 2 µM)
Outline: as §1

| Cell Line | relative viability ([1]; first compound 0.08 µM) | relative viability ([1]; first compound 0.253 µM) | relative viability ([1]; first compound 0.8 µM) | relative viability ([1]; first compound 2.53 µM) | relative viability ([1]; first compound 8 µM) | relative viability ([2]; first compound 0.08 µM) | relative viability ([2]; first compound 0.253 µM) | relative viability ([2]; first compound 0.8 µM) | relative viability ([2]; first compound 2.53 µM) | relative viability ([2]; first compound 8 µM) | relative viability ([3]; first compound 0.08 µM) | relative viability ([3]; first compound 0.253 µM) | relative viability ([3]; first compound 0.8 µM) | relative viability ([3]; first compound 2.53 µM) | relative viability ([3]; first compound 8 µM) | relative viability ([4]; first compound 0.08 µM) | relative viability ([4]; first compound 0.253 µM) | relative viability ([4]; first compound 0.8 µM) | relative viability ([4]; first compound 2.53 µM) | relative viability ([4]; first compound 8 µM) |
| --- | --- | --- | --- | --- | --- | --- | --- | --- | --- | --- | --- | --- | --- | --- | --- | --- | --- | --- | --- | --- |
| COR-L23 | 1.21 | 0.896 | 0.869 | 0.764 | 0.573 | 1.07 | 0.878 | 0.774 | 0.653 | 0.397 | 0.982 | 1.01 | 0.788 | 0.743 | 0.568 | 0.519 | 0.406 | 0.434 | 0.399 | 0.39 |
| NCI-H838 | 1.25 | 1.26 | 1.09 | 0.89 | 0.918 | 0.504 | 0.405 | 0.568 | 0.411 | 0.319 | 1.19 | 1.18 | 1.06 | 0.906 | 0.814 | 0.483 | 0.48 | 0.466 | 0.471 | 0.442 |
| NCI-H1563 | 1.25 | 1.26 | 1.18 | 1.03 | 1 | 0.708 | 0.629 | 0.621 | 0.664 | 0.634 | 0.925 | 0.989 | 0.937 | 0.934 | 0.8 | – | – | – | – | – |
| ChaGo-K-1 | – | – | – | – | – | 0.701 | 0.675 | 0.924 | 1.09 | 0.801 | – | – | – | – | – | 0.558 | 0.526 | 0.492 | 0.516 | 0.49 |
| EBC-1 | 0.88 | 0.914 | 1.09 | 0.995 | 0.649 | 0.429 | 0.331 | 0.413 | 0.362 | 0.327 | 0.691 | 0.78 | 0.743 | 0.738 | 0.555 | – | – | – | – | – |
| CAL-12T | 0.94 | 0.865 | 0.931 | 0.768 | 0.693 | 0.734 | 0.47 | 0.719 | 0.624 | 0.48 | 1.39 | 1.74 | 1.27 | 1.17 | 1.24 | – | – | – | – | – |
| NCI-H1650 | – | – | – | – | – | 0.693 | 0.577 | 0.552 | 0.542 | 0.476 | – | – | – | – | – | 0.432 | 0.558 | 0.457 | 0.432 | 0.416 |
| NCI-H2228 | 1.04 | 0.765 | 0.786 | 0.62 | 0.534 | 0.431 | 0.498 | 0.556 | 0.346 | 0.349 | 0.842 | 0.619 | 0.773 | 0.567 | 0.698 | – | – | – | – | – |
| NCI-H1299 | 0.987 | 1.12 | 1 | 0.988 | 0.926 | 0.806 | 1.19 | 0.81 | 0.736 | 0.578 | 1.1 | 1.18 | 1.08 | 1.02 | 0.886 | – | – | – | – | – |
| NCI-H2170 | – | – | – | – | – | 0.329 | 0.309 | 0.295 | 0.278 | 0.326 | 1.02 | 0.843 | 0.883 | 0.751 | 0.721 | 0.462 | 0.437 | 0.481 | 0.495 | 0.501 |
